Results: the supplement of paper PMC10307832

Key:
Test in all cases: relative viability (nuclei count vs DMSO), 5 days (fraction); higher = more cells survive
COR-L 105 = tested on: COR-L 105
Outline: (§1)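 Values are medians from duplicate plates. Each reflects relative viability, defined as the nuclei count of treated wells over that of vehicle wells. Lung cancer cell lines in 1536-well plates were pin-tool dosed one day after seeding with one drug alone or with a fixed anchor-drug dose plus five library-drug doses (not always all listed) in √10 steps, then fixed, stained and imaged at 4× after 5 days.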

LCLC-103H = tested on: LCLC-103H
Outline: as §1

LK-2 = tested on: LK-2
Outline: as §1

NCI-H1355 = tested on: NCI-H1355
Outline: as §1

NCI-H1623 = tested on: NCI-H1623
Outline: as §1

NCI-H1648 = tested on: NCI-H1648
Outline: as §1

NCI-H1666 = tested on: NCI-H1666
Outline: as §1

NCI-H520 = tested on: NCI-H520
Outline: as §1

NCI-H522 = tested on: NCI-H522
Outline: as §1

Work on `Nc1ccn([C@@H]2O[C@H](CO)[C@@H](O)[C@@H]2O)c(=O)n1` [Cytarabine] + Cc1cc(Nc2cc(N3CCN(C)CC3)nc(Sc3ccc(NC(=O)C4CC4)cc3)n2)n[nH]1 [Tozasertib] (partner 0.1 µM) yielded a relative viability (COR-L 105; first compound 0.005 µM) of 0.305, a relative viability (COR-L 105; first compound 0.01581 µM) of 0.317 and a relative viability (COR-L 105; first compound 0.05 µM) of 0.306. It also gave a relative viability (COR-L 105; first compound 0.1581 µM) of 0.319, a relative viability (COR-L 105; first compound 0.5 µM) of 0.334 and a relative viability (LCLC-103H; first compound 0.005 µM) of 0.568. It also gave a relative viability (LCLC-103H; first compound 0.01581 µM) of 0.487, a relative viability (LCLC-103H; first compound 0.05 µM) of 0.413 and a relative viability (LCLC-103H; first compound 0.1581 µM) of 0.436. The relative viability (LCLC-103H; first compound 0.5 µM) was 0.373, the relative viability (LK-2; first compound 0.005 µM) was 0.213 and the relative viability (LK-2; first compound 0.01581 µM) was 0.185. It also gave a relative viability (LK-2; first compound 0.05 µM) of 0.168, a relative viability (LK-2; first compound 0.1581 µM) of 0.157 and a relative viability (LK-2; first compound 0.5 µM) of 0.215. For the same compound, the relative viability (NCI-H1355; first compound 0.005 µM) was 0.52, the relative viability (NCI-H1355; first compound 0.01581 µM) was 0.524 and the relative viability (NCI-H1355; first compound 0.05 µM) was 0.484. For the same compound, the relative viability (NCI-H1355; first compound 0.1581 µM) was 0.269, the relative viability (NCI-H1355; first compound 0.5 µM) was 0.314 and the relative viability (NCI-H1623; first compound 0.005 µM) was 0.325. It also gave a relative viability (NCI-H1623; first compound 0.01581 µM) of 0.264, a relative viability (NCI-H1623; first compound 0.05 µM) of 0.284 and a relative viability (NCI-H1623; first compound 0.1581 µM) of 0.199. The relative viability (NCI-H1623; first compound 0.5 µM) was 0.178, the relative viability (NCI-H1648; first compound 0.005 µM) was 0.456 and the relative viability (NCI-H1648; first compound 0.01581 µM) was 0.517. For the same compound, the relative viability (NCI-H1648; first compound 0.05 µM) was 0.484, the relative viability (NCI-H1648; first compound 0.1581 µM) was 0.265 and the relative viability (NCI-H1648; first compound 0.5 µM) was 0.32. For the same compound, the relative viability (NCI-H1666; first compound 0.005 µM) was 0.559, the relative viability (NCI-H1666; first compound 0.01581 µM) was 0.628 and the relative viability (NCI-H1666; first compound 0.05 µM) was 0.469. For the same compound, the relative viability (NCI-H1666; first compound 0.1581 µM) was 0.446, the relative viability (NCI-H1666; first compound 0.5 µM) was 0.423 and the relative viability (NCI-H520; first compound 0.005 µM) was 0.416. For the same compound, the relative viability (NCI-H520; first compound 0.01581 µM) was 0.463, the relative viability (NCI-H520; first compound 0.05 µM) was 0.478 and the relative viability (NCI-H520; first compound 0.1581 µM) was 0.415. It also gave a relative viability (NCI-H520; first compound 0.5 µM) of 0.494, a relative viability (NCI-H522; first compound 0.005 µM) of 0.556 and a relative viability (NCI-H522; first compound 0.01581 µM) of 0.5. The relative viability (NCI-H522; first compound 0.05 µM) was 0.476, the relative viability (NCI-H522; first compound 0.1581 µM) was 0.482 and the relative viability (NCI-H522; first compound 0.5 µM) was 0.572.

In the case of `Cc1sc2c(c1C)C(c1ccc(Cl)cc1)=N[C@@H](CC(=O)OC(C)(C)C)c1nnc(C)n1-2` [JQ1] + COc1cccc2cc(-c3nc([C@H]4CC[C@H](C(=O)O)CC4)n4ncnc(N)c34)[nH]c12 [OSI-027] (partner 0.5 µM), the relative viability (COR-L 105; first compound 0.04 µM) is reported as 0.608, the relative viability (COR-L 105; first compound 0.1265 µM) is reported as 0.336 and the relative viability (COR-L 105; first compound 0.4 µM) is reported as 0.297. For the same compound, the relative viability (COR-L 105; first compound 1.265 µM) was 0.207, the relative viability (COR-L 105; first compound 4 µM) was 0.248 and the relative viability (LCLC-103H; first compound 0.04 µM) was 0.443. It also gave a relative viability (LCLC-103H; first compound 0.1265 µM) of 0.448, a relative viability (LCLC-103H; first compound 0.4 µM) of 0.367 and a relative viability (LCLC-103H; first compound 1.265 µM) of 0.357. The relative viability (LCLC-103H; first compound 4 µM) was 0.29, the relative viability (LK-2; first compound 0.04 µM) was 0.204 and the relative viability (LK-2; first compound 0.1265 µM) was 0.21. The relative viability (LK-2; first compound 0.4 µM) was 0.188, the relative viability (LK-2; first compound 1.265 µM) was 0.122 and the relative viability (LK-2; first compound 4 µM) was 0.143. It also gave a relative viability (NCI-H1355; first compound 0.04 µM) of 0.429, a relative viability (NCI-H1355; first compound 0.1265 µM) of 0.374 and a relative viability (NCI-H1355; first compound 0.4 µM) of 0.42. It also gave a relative viability (NCI-H1355; first compound 1.265 µM) of 0.25, a relative viability (NCI-H1355; first compound 4 µM) of 0.253 and a relative viability (NCI-H1623; first compound 0.04 µM) of 0.446. The relative viability (NCI-H1623; first compound 0.1265 µM) was 0.433, the relative viability (NCI-H1623; first compound 0.4 µM) was 0.363 and the relative viability (NCI-H1623; first compound 1.265 µM) was 0.328. For the same compound, the relative viability (NCI-H1623; first compound 4 µM) was 0.291, the relative viability (NCI-H1648; first compound 0.04 µM) was 0.285 and the relative viability (NCI-H1648; first compound 0.1265 µM) was 0.287. It also gave a relative viability (NCI-H1648; first compound 0.4 µM) of 0.304, a relative viability (NCI-H1648; first compound 1.265 µM) of 0.206 and a relative viability (NCI-H1648; first compound 4 µM) of 0.274. It also gave a relative viability (NCI-H1666; first compound 0.04 µM) of 0.761, a relative viability (NCI-H1666; first compound 0.1265 µM) of 0.901 and a relative viability (NCI-H1666; first compound 0.4 µM) of 0.726. It also gave a relative viability (NCI-H1666; first compound 1.265 µM) of 0.581, a relative viability (NCI-H1666; first compound 4 µM) of 0.789 and a relative viability (NCI-H520; first compound 0.04 µM) of 0.211. The relative viability (NCI-H520; first compound 0.1265 µM) was 0.325, the relative viability (NCI-H520; first compound 0.4 µM) was 0.201 and the relative viability (NCI-H520; first compound 1.265 µM) was 0.217. The relative viability (NCI-H520; first compound 4 µM) was 0.208, the relative viability (NCI-H522; first compound 0.04 µM) was 0.657 and the relative viability (NCI-H522; first compound 0.1265 µM) was 0.556. For the same compound, the relative viability (NCI-H522; first compound 0.4 µM) was 0.617 and the relative viability (NCI-H522; first compound 4 µM) was 0.468.
